Data: PubChem BioAssay (NCI)
Values joined by “and” are separate entries in the source; they are usually repeats but may differ in a detail not shown here. Equal values may be shown once.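 Grown in 96-well plates, cells were treated for 48 hours with each compound at five concentrations. Insufficient inhibition: endpoint recorded as highest concentration tested. The concentration for 50% growth inhibition is given as GI50. TGI denotes the concentration required for complete inhibition of growth.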

How the values were obtained:
Assay in all cases: NCI anticancer screen, dose series, 48 h
HCC-2998 colon = tested on: HCC-2998 colon
786-0 renal = tested on: 786-0 renal
NCI-H23 lung = tested on: NCI-H23 lung
EKVX NSCLC = tested on: EKVX NSCLC
SK-MEL-5 melanoma = tested on: SK-MEL-5 melanoma
OVCAR-4 ovarian = tested on: OVCAR-4 ovarian
SNB-78 CNS = tested on: SNB-78 CNS
MDA-MB-435 = tested on: MDA-MB-435
A498 renal = tested on: A498 renal
DMS 114 small cell lung = tested on: DMS 114 small cell lung

| SMILES | TGI (HCC-2998 colon) | TGI (786-0 renal) | TGI (NCI-H23 lung) | TGI (EKVX NSCLC) | TGI (SK-MEL-5 melanoma) | TGI (OVCAR-4 ovarian) | TGI (SNB-78 CNS) [µM] | GI50 (HCC-2998 colon) [µM] | GI50 (MDA-MB-435) [µM] | TGI (MDA-MB-435) | GI50 (786-0 renal) | GI50 (A498 renal) [µM] | TGI (A498 renal) | GI50 (NCI-H23 lung) [µM] | GI50 (EKVX NSCLC) | GI50 (SK-MEL-5 melanoma) | GI50 (OVCAR-4 ovarian) [µM] | TGI (DMS 114 small cell lung) [µM] |
| --- | --- | --- | --- | --- | --- | --- | --- | --- | --- | --- | --- | --- | --- | --- | --- | --- | --- | --- |
| O=C(Cc1nc2c3c(ccc2[nH]c1=O)C(=O)c1ccccc1C3=O)C(=O)Nc1ccccc1[N+](=O)[O-] | 36.8 µM | 34.4 µM | 35.4 µM | 36.7 µM | 37.3 µM | 32.4 µM | 16.5 |  |  |  |  |  |  |  |  |  |  |  |
| O=C(NCc1ccc(Cn2c(=O)sn(-c3ccccc3)c2=O)cc1)OCc1ccc2cccc(O)c2n1 | 3.51 µM | 1.08 µM | 3.06 µM | 3.05 µM | 2.97 µM | 2.28 µM |  | 1.81 | 0.709 | 2.03 µM | 0.484 µM | 0.382 | 1.89 µM | 1.46 | 1.5 µM | 1.6 µM | 0.947 |  |
| COc1c(C)n(CCO)ccc1=O |  | > 100 µM |  | > 100 µM | > 100 µM | > 100 µM | > 100 |  |  |  |  |  | > 100 µM |  |  |  |  | > 100 |
| O=C1CCCN1c1ccccc1I(=O)=O | > 100 µM | > 100 µM | > 100 µM | > 100 µM | > 100 µM | > 100 µM |  | > 100 | > 100 | > 100 µM | > 100 µM | > 100 | > 100 µM | > 100 | > 100 µM | > 100 µM | > 100 |  |
| CC1=C(C#N)C(=O)CC(c2ccc(Cl)cc2)N(C)N1 (stereo unspecified) | > 100 µM | > 100 µM | > 100 µM |  | > 100 µM | > 100 µM | > 100 |  |  |  |  |  | > 100 µM |  |  |  |  | > 100 |
| Cc1cccc(C2=C/C(=C(\SS/C(C(=O)c3ccc(OCC(=O)O)c(Cl)c3Cl)=C3\C=C(c4cccc(C)c4)SS3)C(=O)c3ccc(OCC(=O)O)c(Cl)c3Cl)SS2)c1 | > 100 µM | 41.7 µM | 38.7 µM | > 100 µM | 47.8 µM | > 70.2 µM | 80.6 |  |  |  |  |  | 49.4 µM |  |  |  |  | 17.7 |
| O=c1[nH]cnc(NC2C=C(CO)C(O)C2O)c1[N+](=O)[O-] (stereo unspecified) | > 100 µM | > 64.3 µM | > 100 µM | > 100 µM | > 100 µM | > 100 µM | > 100 |  |  |  |  |  | > 100 µM |  |  |  |  | > 84.7 |
| Nc1cc(Br)c(-c2nnc(CCC(=O)c3nc4ccccc4[nH]3)o2)c(Br)c1 | 42.5 µM | 61.7 µM | 36.4 µM | > 100 µM | > 100 µM | 78.3 µM |  | 11 | 1.56 | 3.71 µM | 21 µM | 0.662 | 10.5 µM | 3.26 | 23.1 µM | 14.2 µM | 5.49 |  |
| COc1cc2c(Nc3cc(Cl)c(OC)c(Cl)c3)c(C#N)cnc2cc1OCCCN1CCN(C)CC1 | 4.1 µM | 4.54 µM | 4.89 µM | 18.9 µM | 2.71 µM | 11.3 µM |  | 1.56 | 1.24 | 3.2 µM | 1.73 µM | 0.904 | 2.61 µM | 1.54 | 1.17 µM | 1.37 µM | 1.9 |  |
| COC(c1ccc(C(C)(C)C)cc1)(c1ccc(C(C)(C)C)cc1)c1ccc(C(C)(C)C)cc1 | > 100 µM | > 100 µM | > 100 µM | > 100 µM | > 100 µM | > 100 µM |  |  |  | > 100 µM |  |  | > 100 µM |  |  |  |  |  |
| Cc1cc2c(c(C(N)=O)c1C)-c1ccccc1C2=O | > 100 µM | > 100 µM | > 100 µM | > 100 µM |  | > 100 µM | > 100 |  |  |  |  |  | > 100 µM |  |  |  |  | > 100 |
| CCN(CC)CCCCCCNc1cccc2cc(Br)cnc12 | 15.4 µM | 11.1 µM | 20.7 µM | 25.1 µM | 3.27 µM | 18.9 µM |  | 3.84 | 3.76 | 12.9 µM | 3.39 µM | 4.28 | 21.3 µM | 5.89 | 10.2 µM | 1.83 µM | 5.05 |  |
| CCCC/C(=C\C1=C(C)C(=O)C(OC)=C(OC)C1=O)C(=O)O | > 100 µM | > 100 µM | > 100 µM | > 100 µM | > 100 µM | > 100 µM |  | > 100 | > 100 | > 100 µM | > 100 µM | > 100 | > 100 µM | > 100 | > 100 µM | > 100 µM | 31.6 |  |
| CC(C)[C@H](O)C(=O)N[C@@H](C)C(=O)N[C@@H]1C(=O)N(C)CCc2ccccc21 | > 100 µM | > 100 µM | > 100 µM | > 100 µM | > 100 µM | > 100 µM |  | > 100 | > 100 | > 100 µM | > 100 µM | > 100 | > 100 µM | > 100 | > 100 µM | > 100 µM | > 100 |  |
| CCOC(=O)NC(=O)c1cn(C2CCCCC2)c(=O)[nH]c1=O | > 100 µM | > 100 µM | > 100 µM | > 100 µM |  | > 100 µM | > 100 |  |  |  |  |  | > 100 µM |  |  |  |  |  |
| CC(C)CC(C/C=C1/CC(CO)(COC(=O)C(C)(C)C)OC1=O)CC(C)C (stereo unspecified) | 5.37 µM and 6.13 µM | 17.7 µM and 26.3 µM | 23.4 µM and 24.4 µM | 10.7 µM and 7 µM | 18.8 µM and 4.95 µM | 34.9 µM and 30.6 µM |  |  |  | 18.3 µM and 15 µM | 1.72 µM and 7.83 µM |  | 21.7 µM and 22.2 µM |  | 1.25 µM and 0.247 µM | 0.462 µM and 0.0794 µM |  |  |
| COc1ccc(C(CC(=O)c2ccc3c(c2)OCO3)c2c(O)c3ccccc3oc2=O)cc1OC (stereo unspecified) | > 100 µM | > 100 µM | > 100 µM | > 100 µM | > 100 µM | > 100 µM |  |  |  | > 100 µM |  |  | > 100 µM |  |  |  |  |  |
| CC1=NN(C(=O)CC(=O)Nc2ccccc2F)C(=O)C1N=Nc1ccccc1[N+](=O)[O-] (stereo unspecified) |  | > 100 µM | > 100 µM | > 100 µM | 33.5 µM | > 100 µM | > 100 |  |  |  |  |  |  |  |  |  |  | > 100 |
